# Test results from patent US9682928B2 (NeuroPro Therapeutics, Inc., priority 2009, dated 2017).
# Where “and” joins values, the source holds several entries; their conditions need not be identical. Equal entries are not always repeated. Entries after “also recorded” stand apart in the source; their conditions may differ.
# Key:
# mouse [1] = conditions: literature data; cited from earlier work
# NKCC1 = biological target: T1, NKCC1 (Homo sapiens, UniProt P55011); assay: NKCC1 Rb+ influx assay in human adult skin fibroblasts; assay type: cell-based
# T1 construct: endogenous in cells; host or cells: human adult skin fibroblasts (primary culture)
# Description: The protocol may be done in accordance with Panet and Alan The Journal of Cell Biology, Volume 114, Number 2, July 1991 337-342. Human adult skin fibroblasts were seeded at 3 concentrations: 3000/5000/10 000 on 96 well culture plates with DMEM supplemented with 10% FCS and 4 mM glutamine (37° C., CO2). Medium was replaced with DMEM supplemented with 0.2% FCS, 4 mM glutamine and 20 mM HEPES (37° C., CO2). The NKCC assay may be performed according the standard operating procedure as described in Chassande, et al. (1988) “The Na+/K+/CI^− cotransport in C6 glioma cells.” Eur. J. Biochem. 171: 425-433.
# This allows for the administration of the compounds described herein described herein without unwanted diuretic side effects.
# [2] = tested on: GABAA-IPSCs, hippocampal slices (CA1 pyramidal cell layer); assay: In vitro hippocampal slice recordings of miniature and spontaneous IPSCs; assay type: cell-based; conditions: two experiments
# Description: Ion flux in neuronal cells was measured using standard techniques. Kandel and Schwartz Principles of Neural Science 2nd Edition (1985), see, e.g., pages 128-131. Recording was performed in vitro in hippocampal slices (CA1 pyramidal cell layer). For recording GABAA-IPSCs, glutamatergic and GABAB transmission was blocked by adding DNOX (50 μM), AP-5 (50 μM), and SCH50911 ([…]) into the medium. The intracellular solution comprised CsCl and OX314.
# [3] = biological target: T2, α3β3γ2 GABAA receptor isoform (Homo sapiens, UniProt P18507+P28472+P34903); assay: Whole-cell patch clamp, transfected HEK-293T cells; assay type: cell-based, rat or human; conditions: 10 μM NTP-2014; 1 μM and 100 μM GABA
# T2 construct: expressed in transfected cells; host or cells: HEK-293T, transient transfection
# [4] = Tolerability after oral administration; assay type: in vivo
# in vivo = conditions: rat
# mouse [5] = assay: Formalin test (acute/early and late phase) in mice; assay type: in vivo
# Description: The formalin test was performed according to the method of Tjølsen, et al. (October 1992) “The formalin test: an evaluation of the method.” Pain 51(1): 5-17. An injection of 0.5% formalin is made into the plantar region of the right hind paw of a mouse. This elicits a distinct behavioral profile in response to the formalin injection characterized by the mouse licking the affected paw. The behavior is characteristically biphasic in nature. For example, immediately following the injection the mouse intensely licks the paw for approximately 5-10 minutes (“min.”) This initial behavior was considered phase 1 (acute) and is thought to be mediated primarily by chemical activation of local C-fibers. The acute phase is followed by a brief latent (usually <5 min) period where there is little or no behavioral activity. A more prolonged (about 20 to 30 min) period of licking then ensues which constitutes phase 2 of the response (late phase). See e.g., Tjølsen, et al. (Feb. 7, 1991) “Antinociceptive effect of paracetamol in rats is partly dependent on spinal serotonergic systems. Eur J Pharmacol. 193(2): 193-201 and Tjølsen, et al. (June 1991) Lesions of bulbo-spinal serotonergic or noradrenergic pathways reduce nociception as measured by the formalin test. Acta Physiol Scand. 142(2): 229-36, the disclosures of each of which are hereby incorporated by reference in its entirety.
# It is in these tubes that mice are later observed for the licking activity for the duration of the experiment. Following the conditioning, the test substance was administered i.p. in a dose equivalent to the MES ED50 and the mouse returned to its home tube. At the TPE of the drug, the formalin is injected subdermally into the plantar surface of the right hind foot. It is given in a volume of 20 μl with a 27 gauge stainless steel needle attached to a Hamilton syringe. The bevel of the needle was placed facing down toward the skin surface. […] The cumulative length of licking for each 2-min time period was measured. […] Animals are euthanized following the conclusion of the experiment.
# Area under the curve (AUC) and subsequent percent of control for drug-treated animal groups is determined using the GraphPad Prism Version 3.03. Total AUC was calculated for both the test and control groups for both the acute and inflammatory phases. The AUC for individual animals for each phase was also calculated and converted to percentage of total AUC of control. The average and S.E.M. for both the drug treated and control percentages were calculated and tested for significant difference.
# [6] = Brain levels in rat following IP administration; assay type: in vivo; conditions: PBx pretreated; for Concentration of NTP-2024 in rat brain: NTP-2024 100 mg/kg IP; for Concentration of NTP-2000 (bumetanide) in rat brain: after NTP-2024 100 mg/kg IP
# Male CD-1 mice = assay: Chung (SNL) neuropathic pain study in mice; assay type: in vivo, mouse; conditions: high dose group (180 mg/kg NTP-2014; 100 mg/kg NTP-2026; gabapentin 100 mg/kg, i.p.)
# T1 sequence (P55011 whole entry): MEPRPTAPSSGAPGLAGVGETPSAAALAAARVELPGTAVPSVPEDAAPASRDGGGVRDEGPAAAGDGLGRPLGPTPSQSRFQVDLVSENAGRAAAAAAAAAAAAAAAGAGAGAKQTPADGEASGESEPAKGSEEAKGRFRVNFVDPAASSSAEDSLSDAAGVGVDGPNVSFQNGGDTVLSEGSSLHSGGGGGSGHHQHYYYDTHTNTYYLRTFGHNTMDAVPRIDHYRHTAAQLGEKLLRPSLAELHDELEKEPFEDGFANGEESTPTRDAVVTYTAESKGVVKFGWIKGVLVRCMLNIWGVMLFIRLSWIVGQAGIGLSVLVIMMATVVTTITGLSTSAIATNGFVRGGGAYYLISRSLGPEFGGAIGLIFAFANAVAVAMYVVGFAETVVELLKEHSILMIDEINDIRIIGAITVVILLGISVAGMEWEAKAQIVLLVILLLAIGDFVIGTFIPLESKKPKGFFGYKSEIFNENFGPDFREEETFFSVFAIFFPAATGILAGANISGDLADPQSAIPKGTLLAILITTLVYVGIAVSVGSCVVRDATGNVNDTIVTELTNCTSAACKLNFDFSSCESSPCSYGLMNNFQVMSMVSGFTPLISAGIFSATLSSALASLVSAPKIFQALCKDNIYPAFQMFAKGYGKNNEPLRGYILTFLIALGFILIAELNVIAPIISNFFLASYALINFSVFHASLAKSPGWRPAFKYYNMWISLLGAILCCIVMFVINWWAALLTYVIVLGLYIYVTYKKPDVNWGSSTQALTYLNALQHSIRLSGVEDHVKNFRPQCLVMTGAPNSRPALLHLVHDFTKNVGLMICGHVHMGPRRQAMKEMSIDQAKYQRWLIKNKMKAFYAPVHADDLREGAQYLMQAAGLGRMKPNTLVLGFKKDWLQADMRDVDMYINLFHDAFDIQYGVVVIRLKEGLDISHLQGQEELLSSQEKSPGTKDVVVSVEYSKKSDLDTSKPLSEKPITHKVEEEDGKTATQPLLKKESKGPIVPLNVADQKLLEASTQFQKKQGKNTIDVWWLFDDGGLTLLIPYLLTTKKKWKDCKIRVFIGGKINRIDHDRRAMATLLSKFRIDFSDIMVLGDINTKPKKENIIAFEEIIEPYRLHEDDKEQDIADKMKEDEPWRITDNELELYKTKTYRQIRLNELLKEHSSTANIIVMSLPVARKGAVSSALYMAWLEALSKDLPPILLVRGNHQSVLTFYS
# T2 sequence (P34903 29-492): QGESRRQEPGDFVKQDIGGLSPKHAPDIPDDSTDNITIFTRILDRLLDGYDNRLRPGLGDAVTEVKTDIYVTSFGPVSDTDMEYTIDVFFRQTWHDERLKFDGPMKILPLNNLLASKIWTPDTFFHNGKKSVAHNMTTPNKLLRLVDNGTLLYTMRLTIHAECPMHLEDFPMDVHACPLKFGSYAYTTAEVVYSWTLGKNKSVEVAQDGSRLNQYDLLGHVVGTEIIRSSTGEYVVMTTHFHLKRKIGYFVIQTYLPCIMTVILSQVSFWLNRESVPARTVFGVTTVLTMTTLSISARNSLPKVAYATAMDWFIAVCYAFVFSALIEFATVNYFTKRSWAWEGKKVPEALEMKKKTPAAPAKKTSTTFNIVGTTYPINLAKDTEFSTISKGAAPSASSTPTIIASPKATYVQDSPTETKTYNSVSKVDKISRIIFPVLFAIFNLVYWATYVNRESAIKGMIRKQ
# T2 sequence (P28472 26-473): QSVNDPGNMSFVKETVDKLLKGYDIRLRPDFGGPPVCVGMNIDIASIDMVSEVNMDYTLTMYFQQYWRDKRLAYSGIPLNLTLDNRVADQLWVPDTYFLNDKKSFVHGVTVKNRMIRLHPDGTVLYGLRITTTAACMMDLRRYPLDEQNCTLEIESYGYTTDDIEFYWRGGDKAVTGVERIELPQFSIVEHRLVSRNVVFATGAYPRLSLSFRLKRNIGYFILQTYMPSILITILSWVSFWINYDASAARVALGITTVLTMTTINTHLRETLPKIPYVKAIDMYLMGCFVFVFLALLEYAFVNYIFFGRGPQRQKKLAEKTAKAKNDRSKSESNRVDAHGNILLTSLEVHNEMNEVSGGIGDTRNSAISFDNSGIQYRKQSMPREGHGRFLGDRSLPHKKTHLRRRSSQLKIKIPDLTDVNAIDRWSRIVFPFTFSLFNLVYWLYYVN
# T2 sequence (P18507 40-475): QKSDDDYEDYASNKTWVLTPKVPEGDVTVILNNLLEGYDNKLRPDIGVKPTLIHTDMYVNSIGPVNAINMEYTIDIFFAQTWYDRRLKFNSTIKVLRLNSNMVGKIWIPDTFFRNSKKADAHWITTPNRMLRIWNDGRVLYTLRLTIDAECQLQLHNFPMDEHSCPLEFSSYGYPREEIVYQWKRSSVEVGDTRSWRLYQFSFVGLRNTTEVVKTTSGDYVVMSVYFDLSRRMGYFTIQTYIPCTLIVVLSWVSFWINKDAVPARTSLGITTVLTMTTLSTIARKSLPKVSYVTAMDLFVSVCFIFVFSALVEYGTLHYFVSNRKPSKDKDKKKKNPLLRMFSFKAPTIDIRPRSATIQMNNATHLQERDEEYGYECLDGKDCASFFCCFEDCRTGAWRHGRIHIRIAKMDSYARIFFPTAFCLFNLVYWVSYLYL
smiles,measurement,setting,value
"CCCCNc1cc(C(=O)O)cc(S(N)(=O)=O)c1Oc1ccccc1 [Bumetanide, reference compound]",Activity in early phase formalin paw test,mouse [1],has little
same,Activity in late phase formalin paw test,mouse [1],is active in late phase
"CCCCN(CCCC)c1cc(C(=O)O)cc(S(N)(=O)=O)c1Oc1ccccc1 [NTP-2014, 3-Aminosulfonyl-5-N,N-dibutylamino-4-phenoxybenzoic acid]",Inhibition of NKCC1 in the presence of a co-transporter activating mitogen (FGF),NKCC1,did not inhibit
same,Inhibition of NKCC1 chloride transport,NKCC1; primary cell cultures,no inhibition
same,"Mean interval between inhibitory events, spontaneous IPSCs, with NTP-2014",[2]; from 257 ms (FIG. 34A) and from 535 ms (FIG. 34B),205 ms and 401 ms
same,"Mean interval between inhibitory events, miniature IPSCs, with NTP-2014",[2]; from 315 ms (FIG. 35A) and from 361 ms (FIG. 35B),162 ms and 160 ms
same,"Effect on current, α3 containing isoform",[3],slowed the decay rate; also recorded: inhibited
same,CNS side effects,[4]; after oral administration,no CNS side effects
same,Toxicological tolerability,[4]; in vivo,well-tolerated
same,NOAEL at 14 day,in vivo,500 mg/kg
"CCCCNc1cc(C(=O)NN2CCOCC2)cc(S(N)(=O)=O)c1Oc1ccccc1 [NTP-2024, N-Morpholinyl 3-Aminosulfonyl-5-N-butylamino-4-phenoxybenzamide]","Decrease in pain, Formalin Paw Test (Mice) - Late Phase","mouse [5]; 346 μmol/kg, 150 mg/kg, p < 0.01",150 mg/kg; >80%
same,"Decrease in pain, Formalin Paw Test (Mice) - Early Phase","mouse [5]; 346 μmol/kg, 150 mg/kg, p < 0.05",150 mg/kg; ~40%;
same,"% of Control, Acute","mouse [5]; 150 mg/kg i.p., mice",58.55%
same,"% of Control, Late Phase","mouse [5]; 150 mg/kg i.p., mice",12.54%
same,"Treated (AUC of licking time), Acute","mouse [5]; 150 mg/kg i.p., mice",80.03
same,"Treated (AUC of licking time), Late Phase","mouse [5]; 150 mg/kg i.p., mice",76.39
same,Concentration of NTP-2024 in rat brain,[6]; 15 m,283.783 ng/mL and 277.985 ng/mL and 226.803 ng/mL
same,Concentration of NTP-2024 in rat brain,[6]; 30 m,223.370 ng/mL and 340.460 ng/mL and 348.182 ng/mL
same,Concentration of NTP-2024 in rat brain,[6]; 2 h,124.854 ng/mL and 112.217 ng/mL and 154.415 ng/mL
same,Concentration of NTP-2024 in rat brain,[6]; 4 h,26.6338 ng/mL and 23.4893 ng/mL and 37.1694 ng/mL
same,Concentration of NTP-2024 in rat brain,[6]; 6 h,25.4146 ng/mL and 18.4619 ng/mL and 25.7880 ng/mL
same,Concentration of NTP-2000 (bumetanide) in rat brain,[6]; 15 m,BLQ (Below Limit of Quantitation (<1 ng/mL))
same,Concentration of NTP-2000 (bumetanide) in rat brain,[6]; 2 h,BLQ (Below Limit of Quantitation (<1 ng/mL))
same,Concentration of NTP-2000 (bumetanide) in rat brain,[6]; 4 h,BLQ (Below Limit of Quantitation (<1 ng/mL))
same,Concentration of NTP-2000 (bumetanide) in rat brain,[6]; 6 h,BLQ (Below Limit of Quantitation (<1 ng/mL))
"CCCCNc1cc(C(=O)N(C)CCCN(C)C)cc(S(N)(=O)=O)c1Oc1ccccc1 [NTP-2026, N-(3-(Dimethylamino)propyl)-N-methyl 3-Aminosulfonyl-5-N-butylamino-4-phenoxybenzamide]",Sedation,Male CD-1 mice,Some minor sedation; also recorded: tactile hypersensitivity. Some minor
